The record followed here is EP0003359A1, “Specific optical isomers of 2-aminoethyl-1,4-benzodioxanes, process for their preparation and their pharmaceutical compositions” (CIBA-GEIGY AG, priority 1978, dated 1979).

Experiment [1] relates to genetisch hypertensive Ratten. As to the kind of experiment: Blood pressure lowering in hypertensive rats (indirect sphygmomanometry on the tail). It counts as in vivo. To be noted: perorale Dosen von 5 mg/kg/Tag und darunter, preferably as hydrochloride. The text has this:
(§1) Die Verbindungen der Erfindung zeigen wertvolle pharmakologische Eigenschaften, in erster Linie hypotensive, antihypertensive und bradykardische Wirkungen, welche unter anderem durch ihre a- und ß-adrenergischblockierenden, vasodilatorischen und ihre hemmenden Effekte auf das zentrale sympatische Nervensystem zustandekommen. Diese Wirkungen können in Tierversuchen, vorzugsweise an Säugetieren, wie Ratten, Katzen oder Hunden, als Testobjekte nachgewiesen werden. Die Tiere können normotensiv oder hypertensiv, z.B. genetisch hypertensive Ratten sein. Die genannten Verbindungen können ihnen enteral oder parenteral, vorzugsweise oral oder intravenös, z.B. durch Gelatine-Kapseln oder in Form von Stärke enthaltenden Suspensionen bzw. wässerigen Lösungen, verabreicht werden. Die verwendete Dosis kann in einem Bereich von ungefähr zwischen 0,01 und 50 mg/kg/Tag, vorzugsweise ungefähr O,1 und 10 mg/kg/Tag, insbesondere ungefähr 1 und 5 mg/kg/Tag liegen. Die blutdrucksenkende Wirkung wird entweder direkt mit einem Katheter, der z.B. in die femurale Arterie des Hundes eingeführt ist, oder indirekt durch Sphygmomanometrie am Rattenschwanz, und einem Uebertragungsinstrument, welches den Blutdruck vor und nach der Verabreichung des Wirkstoffes in mm Hg angibt, registriert. […]

Experiment [2] concerns anesthätisierte, bilateral vagotomisierte Bastardhunde. As to the kind of experiment: Bradycardic effect in anaesthetised, bilaterally vagotomised dogs with heart rate raised by electrical stimulation. It counts as in vivo. To be noted: Canis lupus familiaris, intravenous, read-out: intravenöse Dosis, nach der die bradykardischen Wirkungen registriert werden können.
Description: as §1

Structures can show the parent of a compound that is named as a salt.

On to `C[C@H](CCc1ccccc1)NC[C@H](O)[C@H]1COc2ccccc2O1` [ℓ-erythro-2R-[2-(4-Phenyl-2R-butylamino)-1S-hydroxyäthyl]-1,4-benzodioxan-hydrochlorid], for which the “blutdrucksenkende Wirkung” value in experiment [1] is “sehr wirksam”. For the same compound, the minimal effective dose in experiment [2] was found to be 0.03 mg/kg.
